{"source": "patent US20080146650A1", "about": "“PHARMACEUTICAL COMPOSITION COMPRISING A-LIPOIC ACID FOR INFLAMMATORY DISEASES” (priority 2005, published 2008)", "key": {"fractalkine protein": {"tested_on": "fractalkine protein", "assay": "Western blot analysis of fractalkine protein in HUVECs", "assay_type": "cell-based, human", "description": "(§1) Recombinant human TNF-α was purchased from R&D Systems (Minneapolis, Minn.). Anti-fractalkine antibody was purchased from Torrey Pines BioLabs (Houston, Tex.). LPS was purchased from Sigma-Aldrich (St. Louis, Mo.). LA (Thioctacid 600®) was obtained from VIATRIS GmbH & Co. KG (Frankfurt, Germany). Calcein-AM was purchased from Molecular Probe (Eugene, Oreg.). Media, sera, and other biochemical reagents were purchased from Sigma-Aldrich, unless otherwise specified. HUVECs were prepared from human umbilical cords by collagenase digestion as previously described (Kim W et al., FASEB J. 2003 17: 1337-19395. Homogeneity of endothelial cells in cultures was confirmed by the presence of factor VIII using immunofluorescence method. HUVECs were maintained in M-199 medium supplemented with 20% (vol/vol) fetal bovine serum at 37° C. in a 5% CO2atmosphere. The primary cultured cells used in this study were between 2 and 4 passages.\nWestern blot analyses were performed as previously described (Aim S Y et al., Am J Pathol 2004 164: 1663-1672). Samples were mixed with sample buffer, boiled for 10 minutes, separated by SDS-PAGE electrotransfered to nitrocellulose membranes. The nitrocellulose membranes were blocked by incubation in blocking buffer, incubated with anti-fractalkine monoclonal antibody, washed, and incubated with horseradish peroxidase-conjugated secondary antibody. […]"}, "[1]": {"tested_on": "fractalkine expression in rat small intestine", "assay": "Immunohistochemical analysis of fractalkine expression in small intestine of LPS-induced endotoxemia rats", "assay_type": "in vivo", "conditions": "LA pretreatment before LPS, 12 hours, FIGS. 7a, 7b", "description": "(§2) Inbred male Sprague-Dawley rats (150-200 g) were obtained from Orient (Charles River Korea, Seoul, Korea) and were maintained on standard laboratory chow and water ad libitum. All animal studies were reviewed and approved by the Institutional Animal Care and Use Committee of Chonbuk National University Medical School. The rats (180-220 g) were divided into 3 groups; control (n=6), LPS (10 mg/kg) (n=6), and LPS (10 mg/kg) plus LA (10 mg/kg/day) (n=6). Control buffer and LPS were injected intravenously through the tail vein. LA was injected intraperitoneally once per day for three days prior to LPS administration. At 12 hours postinjection of vehicle or LPS, rats were anesthetized with ketamine (100 mg/kg) and xylazine (10 mg/kg), and subsequently sacrificed by cervical dislocation. Heart and jejunum were harvested for RNase protection assay, Western blot, and immunohistochemistry.\n(§3) After sacrifice, the hearts and jejunums were quickly excised, rinsed with PBS, and frozen in OCT in methyl-butane on dry ice. Frozen tissue blocks were sectioned at […], and 8-12 sections of heart or jejunum from each rat were incubated with anti-fractalkine antibody at 4 C overnight. […] Fractalkine expression was semi-quantitated by grading the degree of immunostaining (very strong=5, strong=4, moderate=3, weak=2, none=1). […]"}, "[2]": {"tested_on": "fractalkine expression in rat heart", "assay": "Immunohistochemical analysis of fractalkine expression in heart of LPS-induced endotoxemia rats", "assay_type": "in vivo", "conditions": "LA 10 mg/kg/day for 3 days before LPS 10 mg/kg i.v., 12 hours", "description": "as §2, §3"}, "NF-κB (p65/p50)": {"tested_on": "NF-κB (p65/p50)", "assay": "EMSA for NF-κB binding activity in nuclear extracts of HUVECs", "assay_type": "cell-based, human", "description": "EMSA for NF-κB proteins was performed as previously described (Kim I et al., J Biol Chem 2001 276: 7614-7620). Briefly, the cells were lysed in a hypotonic buffer (10 mmol/L HEPES, pH 7.9, 1.5 mmol/L MgCl2, 10 mmol/L KCl, 0.5 mmol/L DTT, 0.5 mmol/L PMSF) containing 0.6% NP-40 and centrifuged at 4000 rpm for 15 min. The pellet was lysed in […] of a high salt buffer (20 mmol/L HEPES, pH 7.9, 420 mmol/L NaCl, 25% glycerol, 1.5 mmol/L MgCl2, 0.2 mmol/L EDTA, 0.5 mmol/L PMSF, 0.5 mmol/L DTT) for 20 min on ice. Seventy five microliter of storage buffer (20 mmol/L HEPES, pH7.9, 100 mmol/L NaCl, 20% glycerol, 0.2 mmol/L EDTA, 0.5 mmol/L PMSF, 0.5 mmol/L DTT) was added, agitated for 10 sec by vortexing, and centrifused at 14,000 rpm for 20 min. Nuclear extracts ([…]) were incubated with approximately 20,000 cpm of ^32P-labeled NF-κB binding site oligomer 5′-[…]-3′ (SEQ ID NO: 1) (Santa Cruz Biotechnology, Santa Cruz, Calif.) for […] at 20 C. EMSA for SP-1 protein was performed with biotin-labeled SP-1 binding site oligomer 5′-[…] (SEQ ID NO: 2) and signals were detected by chemiluminescent imaging according to the manufacturer's protocol (EMSA Gel-Shift. Kit; Panomics, Redwood City, Calif.).\nWe previously reported that NF-κB is involved in TNF-α induced fractalkine expression in HUVECs (Ahn S Y et al., Am J Pathol 2004 164: 1663-1672). […]"}, "[3]": {"tested_on": "adhesion of monocytes to HUVECs", "assay": "Monocyte adhesion assay on HUVECs", "assay_type": "cell-based, human", "conditions": "for increase in the adhesion of monocytes compared to treatment with control buffer: stimulation of HUVECs for 6 hours, TNF-α 10 ng/ml or IL-1β 15 ng/ml", "excerpt": "Human peripheral blood monocytes were isolated from fresh blood of healthy volunteers by Ficoll-Paque gradient centrifugation. The study protocol and informed consent forms were approved by the Chonbuk. National University Hospital Review Board. Monocytes were isolated by negative selection using magnetic beads (Miltenyi Biotec, Bergisch Gladbach, Germany) (Ancuta P et al., J Exp Med 2003 197: 1701-1707). The purity of the monocyte fraction was 93-95% as determined by staining with anti-CD14, anti-CD33, anti-CD16b, and anti-CD56 mAbs and FACScan analysis (Becton Dickinson, Franklin Lakes, N.J.). Monocyte-endothelial adhesion was determined by fluorescent labeling of monocytes by a method described previously (Kim W. et al., Arterioscler Thromb Vase Biol 2003 23: 1377-1383). A number of monocytes adhered to HUVECs was expressed as percent calculated by the formula: % signal/total signal)."}, "fractalkine mRNA": {"tested_on": "fractalkine mRNA", "assay": "RNase protection assay (RPA) for fractalkine mRNA in HUVECs", "assay_type": "cell-based, human", "description": "as §1\nA part of cDNA of human fractalkine (nucleotides 482-893, GenBank accession NM002996) was amplified by PCR and subcloned into pBluescript II KS+ (Stratagene, La Jolla, Calif.). After linearizing with EcoRI, ^32P-labeled antisense RNA probes were synthesized by in vitrotranscription using T7 polymerase (Ambion Maxiscript kit; Ambion, Austin, Tex.) and gel purified. RPA was performed on total RNAs using the Ambion RPA kit (Ambion, Austin, Tex.). An antisense RNA probe of human cyclophilin (nucleotides 135-239, GenBank accession X52856) was used as an internal control for RNA quantification."}, "SP-1": {"tested_on": "SP-1", "assay": "EMSA for SP-1 binding activity in nuclear extracts of HUVECs", "conditions": "FIG. 5b", "protocol": "Briefly, the cells were lysed in a hypotonic buffer (10 mmol/L HEPES, pH 7.9, 1.5 mmol/L MgCl2, 10 mmol/L KCl, 0.5 mmol/L DTT, 0.5 mmol/L PMSF) containing 0.6% NP-40 and centrifuged at 4000 rpm for 15 min. […] Seventy five microliter of storage buffer (20 mmol/L HEPES, pH7.9, 100 mmol/L NaCl, 20% glycerol, 0.2 mmol/L EDTA, 0.5 mmol/L PMSF, 0.5 mmol/L DTT) was added, agitated for 10 sec by vortexing, and centrifused at 14,000 rpm for 20 min. […] EMSA for SP-1 protein was performed with biotin-labeled SP-1 binding site oligomer 5′-[sequence]"}, "serum TNF-α": {"tested_on": "serum TNF-α", "assay": "Serum TNF-α by ELISA after intravenous LPS in rats", "assay_type": "in vivo, rat", "conditions": "for serum level of TNF-α: rats, LPS 10 mg/kg intravenous by tail vein", "description": "(§4) Blood samples (0.5 ml) were taken from rats at 0, 1, 2, 3, and 4 hours after the administration of LPS (10 mg/kg) or vehicle. Serum concentrations of TNF-α and IL-1β were determined by using ELISA kits (Endogen, Woburn, Mass.).\n(§5) Serum concentrations of TNF-α and IL-1β were determined by using Enzyme-Linked Immunosorbent Assay (ELISA) Kits (Endogen, Woburn, Mass.). […] Thus, we used TNF-α- and IL-1β in this experiment.\nas §2"}, "serum IL-1β": {"tested_on": "serum IL-1β", "assay": "Serum IL-1β by ELISA after intravenous LPS in rats", "assay_type": "in vivo, rat", "conditions": "for serum level of IL-1β: rats, LPS 10 mg/kg intravenous by tail vein", "description": "as §4, §5, §2"}}, "data": [{"molecule": "O=C(O)CCCCC1CCSS1", "note": "(stereo not shown) [LA, 1,2-dithiolane-3-pentanoic acid]", "values": [{"measurement": "effect on TNF-α- and/or IL-1β-induced expression of fractalkine protein", "setting": "fractalkine protein", "result": "decreased"}, {"measurement": "effect on LPS-induced fractalkine expression in arterial endothelial cells and villous endothelium", "setting": "[1]", "result": "dramatically suppressed"}, {"measurement": "effect on LPS-induced fractalkine expression in arterial endothelial cells, endocardium, and endocardial surface of cardiac valves", "setting": "[2]", "result": "dramatically suppressed"}, {"measurement": "effect on basal NF-κB (p65/p50) binding activity", "setting": "NF-κB (p65/p50); LA alone", "result": "no effect"}, {"measurement": "effect on TNF-α- and/or IL-1β-induced NF-κB (p65/p50) binding activity", "setting": "NF-κB (p65/p50); TNF-α 10 ng/ml and/or IL-1β 15 ng/ml, LA 4 mmol/L, FIG. 5a", "result": "suppressed"}, {"measurement": "decrease in monocyte adhesion to IL-1β-stimulated HUVECs", "setting": "[3]; IL-1β 15 ng/ml, FIG. 6a, 6b", "result": 76, "unit": "%"}, {"measurement": "decrease in monocyte adhesion to TNF-α-stimulated HUVECs", "setting": "[3]; TNF-α 10 ng/ml, FIG. 6a, 6b", "result": 63, "unit": "%"}, {"measurement": "effect on HUVEC adhesiveness for monocytes, substance alone", "setting": "[3]; unstimulated HUVECs", "result": "no effects"}, {"measurement": "suppression of IL-1β-induced expression of fractalkine mRNA", "setting": "fractalkine mRNA; IL-1β 15 ng/ml, LA 4 mmol/L, FIG. 4b", "result": "70-80%"}, {"measurement": "effect on expression of fractalkine mRNA induced by TNF-α and IL-1β together", "setting": "fractalkine mRNA; TNF-α 10 ng/ml and IL-1β 15 ng/ml together, FIG. 4c", "result": "suppressed"}, {"measurement": "suppression of TNF-α-induced expression of fractalkine mRNA", "setting": "fractalkine mRNA; TNF-α 10 ng/ml, LA 4 mmol/L, FIG. 4a", "result": "70-80%"}, {"measurement": "effect on TNF-α- and/or IL-1β-induced SP-1 binding activity", "setting": "SP-1", "result": "decreased"}, {"measurement": "effect on basal SP-1 binding activity", "setting": "SP-1; LA alone", "result": "no effect"}, {"measurement": "effect on LPS-increased serum TNF-α", "setting": "serum TNF-α; rats pretreated with LA, then LPS, FIG. 1a", "result": "significantly inhibited"}, {"measurement": "effect on LPS-increased serum IL-1β", "setting": "serum IL-1β; rats pretreated with LA, then LPS, FIG. 1b", "result": "significantly inhibited"}]}, {"molecule": "TNF-α", "values": [{"measurement": "increase in the adhesion of monocytes compared to treatment with control buffer", "setting": "[3]", "result": 5, "unit": "fold"}]}, {"molecule": "IL-1β: proinflammatory cytokine used to stimulate HUVECs", "values": [{"measurement": "increase in the adhesion of monocytes compared to treatment with control buffer", "setting": "[3]", "result": 4, "unit": "fold"}]}, {"molecule": "lipopolysaccharide [LPS]", "values": [{"measurement": "serum level of TNF-α", "setting": "serum TNF-α; 3 hours after LPS", "result": "975 ± 121", "unit": "pg/mL"}, {"measurement": "serum level of TNF-α", "setting": "serum TNF-α; 4 hours after LPS", "result": 0, "unit": "pg/mL"}, {"measurement": "serum level of IL-1β", "setting": "serum IL-1β; 1 hour after LPS", "result": "104 ± 20", "unit": "pg/mL"}, {"measurement": "serum level of IL-1β", "setting": "serum IL-1β; 2 hours after LPS", "result": "232 ± 45", "unit": "pg/mL"}, {"measurement": "serum level of IL-1β", "setting": "serum IL-1β; 3 hours after LPS", "result": "212 ± 19", "unit": "pg/mL"}]}]}
